# Test results as given in patent US20160355483A1, “COMPOUND BINDING TO PPARG BUT NOT ACTING AS PROMOTER AND PHARMACEUTICAL COMPOSITION FOR TREATING PPARG-RELATED DISEASES CONTAINING SAME AS ACTIVE INGREDIENT” (Hyundai Pharm Co., Ltd., priority 2014, published 2016).
# Biological target: T1, PPARG (peroxisome proliferator activated receptor-gamma), GST-PPARG-LBD (Homo sapiens, UniProt P37231)
# T1 construct: 15 μL of 5 nM GST-PPARG-LBD and 5 nM Tb-GST-antibody were added; purchased Invitrogen PV4894
# T1 sequence (P37231 238-503 limits assumed): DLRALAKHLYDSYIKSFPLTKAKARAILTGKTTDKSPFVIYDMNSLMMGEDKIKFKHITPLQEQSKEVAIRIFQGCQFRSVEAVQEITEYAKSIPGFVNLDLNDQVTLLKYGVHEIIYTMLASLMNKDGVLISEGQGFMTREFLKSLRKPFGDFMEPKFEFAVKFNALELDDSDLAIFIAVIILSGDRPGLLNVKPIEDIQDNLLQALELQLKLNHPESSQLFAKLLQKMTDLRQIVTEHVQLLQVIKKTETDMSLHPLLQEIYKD
# Assay: LanthaScreen TR-FRET PPARG Competitive Binding Assay
# Set-up: key: “+” indicates the degree of the binding activity, and as the number of “+” increases, the binding activity is stronger; ++: “+” indicates the degree of the binding activity, and as the number of “+” increases, the binding activity is stronger; +++: “+” indicates the degree of the binding activity, and as the number of “+” increases, the binding activity is stronger; ++++: “+” indicates the degree of the binding activity, and as the number of “+” increases, the binding activity is stronger
# Conditions: degree of binding activity
# Method in brief: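 Ratio of 518 nm to 488 nm time-resolved emission after a 1 h room-temperature incubation, in competition format with GST-PPARG ligand-binding domain. Values are expressed as 100% minus compound-to-vehicle ratio and related to rosiglitazone binding.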
row,SMILES,Binding assay (1 μLM)
1,"C[C@H](NC(=O)c1ccc2c(c1)OCCN2Cc1ccc(-c2ccccc2C(N)=O)cc1)c1cccc(F)c1 [Example 95, (S)-4-((2′-carbamoyl-[1,1′-biphenyl]-4-yl)methyl)-N-(1-(3-fluorophenyl)ethyl)-3,4-dihydro-2H-benzo[b][1,4]oxazine-7-carboxamide]",+++
2,"NC(=O)c1ccccc1-c1ccc(CN2CCOc3cc(C(=O)NCc4cccnc4)ccc32)cc1 [Example 97, 4-((2′-carbamoyl-[1,1′-biphenyl]-4-yl)methyl)-N-(pyridine-3-ylmethyl)-3,4-dihydro-2H-benzo[b][1,4]oxazine-7-carboxamide]",+
3,"NC(=O)c1ccccc1-c1ccc(CN2CCOc3cc(C(=O)NCc4ccncc4)ccc32)cc1 [Example 98, 4-((2′-carbamoyl-[1,1′-biphonyl]-4-yl)methyl)-N-(pyridine-4-ylmethyl)-3,4-dihydro-2H-benzo[b][1,4]oxazine-7-carboxamide]",+
4,"C[C@H](NC(=O)c1ccc2c(c1)OCCN2Cc1ccc(-c2ccccc2C(N)=O)cc1)c1ccc(SC(F)(F)F)cc1 [Example 99, (S)-4-((2′-carbamoyl-[1,1′-biphenyl]-4-yl)methyl)-N-(1-(4-((trifluoromethyl)thio)phenyl)ethyl)-3,4-dihydro-2H-benzo[b][1,4]oxazine-7-carboxamide]",+++
5,"NC(=O)c1ccccc1-c1ccc(CN2CCOc3cc(C(=O)NCc4ccccc4)ccc32)cc1 [Example 100, N-benzyl-4-((2′-carbamoyl-[1,1′-biphenyl]-4-yl)methyl)-3,4-dihydro-2H-benzo[b][1,4]oxazine-7-carboxamide]",++
6,"NC(=O)c1ccccc1-c1ccc(CN2CCOc3cc(C(=O)NCc4ccccc4Br)ccc32)cc1 [Example 101, N-(2-bromobenzyl)-4-((2′-carbamoyl-[1,1′-biphenyl]-4-yl)methyl)-3,4-dihydro-2H-benzo[b][1,4]oxazine-7-carboxamide]",++
7,"NC(=O)c1ccccc1-c1ccc(CN2CCOc3cc(C(=O)NCc4ccc5c(c4)OCCO5)ccc32)cc1 [Example 102, 4-((2′-carbamoyl-[1,1′-biphenyl]-4-yl)methyl)-N-((2,3-dihydrobenzo[b][1,4]dioxin-6-yl)methyl)-3,4-dihydro-2H-benzo[b][1,4]oxazine-7-carboxamide]",+
8,"C[C@H](NC(=O)c1ccc2c(c1)OCCN2Cc1ccc(-c2ccccc2C(=O)[O-])cc1)c1ccccc1.[Na+] [Example 103, sodium (S)-4′-((7-((1-phenylethyl)carbamoyl)-2H-benzo[b][1,4]oxazine-4(3H)-yl)methyl)-[1,1′-biphenyl]-2-carboxylate]",++
9,"C[C@H](NC(=O)c1ccc2c(c1)OCCN2Cc1ccc(-c2ccccc2C(=O)[O-])cc1)c1ccc([N+](=O)[O-])cc1.[Na+] [Example 105, sodium (S)-4′-((7-((1-(4-nitrophenyl)ethyl)carbamoyl)-2-benzo[b][1,4]oxazine-4(3H)-yl)methyl)-[1,1′-biphenyl]-2-carboxylate]",+
10,C[C@H](NC(=O)c1ccc2c(c1)CCCN2Cc1ccc(-c2ccccc2C(=O)O)cc1F)c1ccccc1 [Example 106],++++
11,"C[C@H](NC(=O)c1ccc2c(c1)CCCN2Cc1ccc(-c2ccccc2C(N)=O)cc1F)c1ccccc1 [Example 107, (S)-1-((2′-carbamoyl-3-fluoro-[1,1′-biphenyl]-4-yl)methyl)-N-(1-phenylethyl)-1,2,3,4-tetrahydroquinoline-6-carboxamide]",+++
12,"C[C@H](NC(=O)c1ccc2c(c1)CCCN2Cc1ccc(-c2ccccc2C(=O)O)cc1F)c1ccc2ccccc2c1 [Example 108, (S)-3′-fluoro-4′-((6-((1-(naphthalene-2-yl)ethyl)carbamoyl)-3,4-dihydroquinoline-1(28)-yl)methyl)-[1,1′-biphenyl]-2-carboxylic acid]",++++
13,"C[C@H](NC(=O)c1ccc2c(c1)CCCN2Cc1ccc(-c2ccccc2C(=O)O)cc1F)c1ccc([N+](=O)[O-])cc1 [Example 109, (S)-3′-fluoro-4′-((6-((1-(4-nitrophenyl)ethyl)carbamoyl)-3,4-dihydroquinoline-1(2H)-yl)methyl)-[1,1′-biphenyl]-2-caboxylic acid]",+++
14,"Cc1ccc([C@H](C)NC(=O)c2ccc3c(c2)CCCN3Cc2ccc(-c3ccccc3C(=O)O)cc2F)cc1F [Example 111, (S)-3′-fluoro-4′-((6-((1-(3-fluoro-4-methylphenyl)ethyl)carbamoyl)-3,4-dihydroquinoline-1(2H)-yl)methyl)-[1,1′-biphenyl]-2-caboxylic acid]",++++
15,"C[C@H](NC(=O)c1ccc2c(c1)CCCN2Cc1ccc(-c2ccccc2C(N)=O)cc1F)c1ccc(C#N)cc1 [Example 112, (S)-1-((2′-carbamoyl-3-fluoro-[1,1′-biphenyl]-4-yl)methyl)-N-(1-(4-cyanophenyl)ethyl)-1,2,3,4-tetrahydroquinoline-6-carboxamide]",+++
16,"Cc1ccc([C@H](C)NC(=O)c2ccc3c(c2)CCCN3Cc2ccc(-c3ccccc3C(N)=O)cc2F)cc1F [Example 114, (S)-1-((2′-carbamoyl-3-fluoro-[1,1′-biphenyl]-4-yl)methyl)-N-(1-(3-fluoro-4-methylphenyl)ethyl)-1,2,3,4-tetrahydroquinoline-6-carboxamide]",+++
17,"C[C@H](NC(=O)c1ccc2c(c1)CCCN2Cc1cccc(-c2ccccc2C(=O)O)c1)c1ccccc1 [Example 116, (S)-3′-((6-((1-phenylethyl)carbamoyl)-3,4-dihydroquinoline-1(2H)-yl)methyl)-[1,1′-biphenyl]-2-carboxylic acid]",+++
18,"C[C@H](NC(=O)c1ccc2c(c1)CCCN2Cc1cccc(-c2ccccc2C(N)=O)c1)c1ccccc1 [Example 117, (S)-1-((2′-carbamoyl-[1,1′-biphenyl]-3-yl)methyl)-N-(1-phenylethyl)-1,2,3,4-tetrahydroquinoline-6-carboxamide]",+++
19,"C[C@H](NC(=O)c1ccc2c(c1)CCCN2Cc1cccc(-c2ccccc2C(=O)O)c1)c1ccc([N+](=O)[O-])cc1 [Example 119, (S)-3′-((6-((1-(4-nitrophenyl)ethyl)carbamoyl)-3,4-dihydroquinoline-1(2H)-yl)methyl)-[1,1′-biphenyl]-2-carboxylic acid]",++
20,"C[C@H](NC(=O)c1ccc2c(c1)CCCN2Cc1cccc(-c2ccccc2C(=O)O)c1)c1ccc2ccccc2c1 [Example 120, (S)-3′-((6-((1-(naphthalene-2-yl)ethyl)carbamoyl)-3,4-dihydroquinoline-1(2H)-yl)methyl)-[1,1′-biphenyl]-2-carboxylic acid]",++++
21,"Cc1ccc([C@H](C)NC(=O)c2ccc3c(c2)CCCN3Cc2cccc(-c3ccccc3C(=O)O)c2)cc1F [Example 121, (S)-3′-((6-((1-(3-fluoro-4-methylphenyl)ethyl)carbamoyl)-3,4-dihydroquinoline-1(2H)-yl)methyl)-[1,1′-biphenyl]-2-carboxylic acid]",+++
22,"C[C@H](NC(=O)c1ccc2c(c1)CCCN2Cc1cccc(-c2ccccc2C(N)=O)c1)c1ccc(C#N)cc1 [Example 122, (S)-1-((2′-carbamoyl-[1,1′-biphenyl]-3-yl)methyl)-N-(1-(4-cyanophenyl)ethyl)-1,2,3,4-tetrahydroquinoline-6-carboxamide]",++
23,"C[C@H](NC(=O)c1ccc2c(c1)CCCN2Cc1cccc(-c2ccccc2C(N)=O)c1)c1ccc2ccccc2c1 [Example 124, (S)-1-((2′-carbamoyl-[1,1′-biphenyl]-3-yl)methyl)-N-(1-(naphthalene-2-yl)ethyl)-1,2,3,4-tetrahydroquinoline-6-carboxamide]",++++
24,"Cc1ccc([C@H](C)NC(=O)c2ccc3c(c2)CCCN3Cc2cccc(-c3ccccc3C(N)=O)c2)cc1F [Example 125, (S)-1-((2′-carbamoyl-[1,1′-biphenyl]-3-yl)methyl)-N-(1-(3-fluoro-4-methylphenyl)ethyl)-1,2,3,4-tetrahydroquinoline-6-carboxamide]",+++
25,"C[C@H](NC(=O)c1ccc2c(c1)CCCN2Cc1cccc(-c2ccccc2C(=O)O)c1F)c1ccccc1 [Example 126, (S)-2′-fluoro-3′-((6-((1-phenylethyl)carbamoyl)-3,4-dihydroquinoline-1(2H)-yl)methyl)-[1,1′-biphenyl]-2-carboxylic acid]",+++
26,"C[C@H](NC(=O)c1ccc2c(c1)CCCN2Cc1cccc(-c2ccccc2C(N)=O)c1F)c1ccccc1 [Example 127, (S)-1-((2′-carbamoyl-2-fluoro-[1,1′-biphenyl]-3-yl)methyl)-N-(1-phenylethyl)-1,2,3,4-tetrahydroquinoline-6-carboxamide]",+++
